Assay results from patent publication US20060189546A1, “Compounds for treating autoimmune and demyelinating diseases” (priority 2005, published 2006).
Where two headings read alike, the source gives them in different places.

What was measured:
[1] = system: Experimental Autoimmune Encephalomyelitis (EAE); experiment: Acute EAE, daily dosing for 15 days (Example 5); assay type: in vivo, guinea pigs
Protocol: Accordingly, three randomized cohorts of guinea pigs with EAE induced by the method of Example 2, were treated, respectively, with 6 mg/kg of Symadex™ (full salt hydrate) and 0.35 mg/kg of mitoxantrone. Animals were treated daily, by intraperitoneal injection, for 15 days, starting on day 7 post immunization. Controls were treated with vehicle. We reasoned that 15 consecutive, 6 mg/kg doses of Symadex™ would represent a level of drug exposure that would be commensurate with the “20 mg/kg every 72 hours” regimen in Example 4 and consistent with a mid level exposure between the 20 mg/kg and the 40 mg/kg schedule given weekly, in Example 2. The mitoxantrone dose was selected to reflect a typical high dose given to rats or mice by daily dosing in the prior art, but allometrically scaled to the guinea pig.

[2] = system: Experimental Autoimmune Encephalomyelitis (EAE); experiment: Chronic EAE, two doses 72 hours apart (Example 4); assay type: in vivo, guinea pig; settings: 20 mg/kg i.p., 2 doses 72 hours apart
Protocol: In order to test the possibility that a more frequent dosing schedule would offer a more rapid resolution of disease symptoms, an experiment was performed to match the dosing cycle to the observed periodicity of response. Accordingly, the method of Experiment 2 was applied to a cohort of animals and controls, which were allowed to reach the chronic phase of disease at 30 days post immunization. Six animals with a disease score of 1 were selected and half were treated with 20 mg/kg Symadex™ administered intraperitoneally. Two dose were given 72 hours apart to 3 animals. Three animals served as vehicle controls.

[3] = system: Experimental Autoimmune Encephalomyelitis (EAE); assay type: in vivo, guinea pig
Protocol: Following disease induction, as previously described, the animals were randomized into 5 five cohorts, one vehicle control and 4 treatment cohorts. Animals in the treatment cohorts were administered study drug intraperitoneally at 20 mg/kg (Symadex™dihydrochloride trihydrate) once a week for 4, 6 and 8 weeks, with an additional cohort treated once a week for 4 weeks and observed for an additional 4 weeks of treatment with vehicle solution (saline) rather than with drug.
The only significant protocol deviation from the method of Example 2 was that the pool of immunized animals was culled of animals presenting with a disease severity greater than 2 and randomized so that the mean disease severity of each cohort was matched in the severity score range of 1 to 1.5. This measure was invoked in order to avoid the chance circumstance, observed in Example 2, that animal selected for treatment should start treatment with a more severe presentation than the corresponding vehicle controls.

IL-4 = experiment: Mediator release, IL-4 (Con A-stimulated PBML, sandwich ELISA); assay type: cell-based; settings: Homo sapiens
Protocol: In this experiment, test compound and/or vehicle were preincubated with human peripheral blood mononuclear leukocyte (PBML, 1×10^6/ml) in RPMI buffer pH 7.4 for 2 hours. Concanavalin A (Con A, 20 μg/ml) was then added to stimulate the cells overnight in 5% CO2 at 37° C. IL-4 and IL-10 cytokine levels in the conditioned medium were then quantified using a sandwich ELISA kit. Compounds were screened at 10, 1, 0.1, 0.01 and 0.001 μM.

[4] = system: Collagen Antibody Induced Arthritis; experiment: Collagen monoclonal antibody (mABs) + LPS induced arthritis, hind paw volume; assay type: in vivo, BALB/c strain mice; settings: for increase in hind paw volume: oral once daily for 3 days, 30 mg/kg
Protocol: Groups of 3 BALB/c strain mice, 6-7 weeks of age, were used for the induction of arthritis by monoclonal antibodies (mABs) raised against type II collagen, plus lipopolysaccharide (LPS). A combination of 4 different mABs (D8, F10, DI-2G and A2) totaling 4 mg/mouse was administered to the animal intravenously on day 0, followed by intravenous challenge with […] of LPS 72 hours later (day 3). From day 3, test substance and vehicle were each administered orally once daily for 3 consecutive days. For each animal, volumes of both hind paws were measured using a plethysmometer with water cell (12 mm diameter) on Days 0, 5, 7, 10, 14 and 17. Percent inhibition of increase in volume induced by mABs+LPS was calculated by the following formula: Inhibition (%): [1−(Tn−T0)/(Cn−C0)]×100% Where: […]
C0(Cn): volume of day 0 (day n) in vehicle control
T0(Tn): volume of day 0 (day n) in test compound-treated group
Reduction of edema in the hind paws by 30% or more is considered significant.

HT29 cell line = experiment: GI50 concentration in HT29 cells; assay type: cell-based; settings: Homo sapiens, HT-29
HCT116 cell line = experiment: GI50 concentration in HCT116 cells; assay type: cell-based; settings: Homo sapiens, HCT-116
[5] = human, body surface area, as free base; cited from earlier work
[6] = necropsy after 15 daily doses, Symadex 6 mg/kg, mitoxantrone 0.35 mg/kg

CCN(CC)CCNc1ccc2ncn3c4ccc(O)cc4c(=O)c1c23 [Symadex™, 5-[[(diethylamino)ethyl]amino]-8-hydroxyimidazo[4,5,1-de]-acridine-6-one]
clinical score (neurological impairment) ([1]; daily i.p. for 15 days from day 7, Symadex 6 mg/kg, mitoxantrone 0.35 mg/kg): the initial rise in neurological impairment is arrested
weight gain profile vs vehicle controls, statistical significance ([1]; guinea pig, in vivo): did not show statistical significance
reduction of meningeal inflammation (M) pathology score [1, 6]: does not
reduction of perivascular cuffing (P), myelitis (E) and demyelination (D) pathology scores [1, 6]: statistically significant differences (p value<0.05) from control
clinical scores [2]: reversed the progression of disease and restored baseline clinical scores with just 2 doses
clinical scores after drug withdrawal ([3]; 20 mg/kg i.p. once a week for 4 weeks, then 4 weeks vehicle): remained in stable disease at the time of discontinuation
mean clinical severity score ([3]; 20 mg/kg i.p. once a week, 4-week treatment cycle, starting mean 1.3): 0.7
mean severity score ([3]; 20 mg/kg i.p. once a week, 6 week treatment course, control 1.3): 0.3
clinical scores ([3]; 20 mg/kg i.p., 8 consecutive weekly doses): converges on baseline at the end of the treatment course
% inhibition of IL-4 release at 0.001 µM (IL-4; 1 nM, read-out: % Growth Inhibition): 8%
% inhibition of IL-4 release at 0.01 µM (IL-4; 10 nM, read-out: % Growth Inhibition): 7%
% inhibition of IL-4 release at 0.1 µM (IL-4; 0.1 μM, read-out: % Growth Inhibition): 2%
% inhibition of IL-4 release at 1 µM (IL-4; 1 μM, read-out: % Growth Inhibition): -9%
% inhibition of IL-4 release at 10 µM (IL-4; 10 μM, read-out: % Growth Inhibition): 105%
IC50 (IL-4; IL-4 release): 3330 nM
increase in hind paw volume ([4]; day 5, vehicle 42%): 32%
inhibition of increase in paw volume ([4]; day 10): 61%
increase in hind paw volume ([4]; day 10, vehicle 75%): 29%
inhibition of increase in paw volume ([4]; day 14): 74%
increase in hind paw volume ([4]; day 14, vehicle 70%): 18%
inhibition of increase in paw volume ([4]; day 17): 59%
increase in hind paw volume ([4]; day 17, vehicle 47%): 19%
GI50 (HT29 cell line): 680 nM
GI50 (HCT116 cell line): 210 nM
safe and well-tolerated single dose [5]: 540 mg/m^2
